# Test system: appetite
# Test: Anorectic test: length of spaghetti eaten by starved mice during a two hour test period
# Assay type: in vivo
# Details: 100 mg/kg per os, dosed one hour before test, overnight-starved male mice, (mean length eaten by control - test)/control × 100
# Procedure: The compounds of the invention may be tested for anorectic properties by the following procedure:
# Groups of 8 or 10 male mice weighing 22-24 grams are starved overnight, although access to water is not restricted. The animals are dosed with the test drug or vehicle alone (control) one hour before they are placed individually into glass jars. The jars (100 mm diameter × 80 mm high) have lids fitted with a glass tube to accommodate a stick of spaghetti of approximate length of 450 mm. The glass tube is arranged such that only 5 mm of spaghetti is exposed for eating by the mouse. The length of spaghetti eaten during a two hour test period is indicative of the appetite of the animal.
# When tested by this procedure at a dose of 100 mg/kg per os the following results were obtained: […]
row,Compound,% Inhibition of appetite
1,C[C@@H](Cc1ccccc1)NC(=S)NC(=O)c1ccco1 [Example 6],40%
2,"C[C@@H](Cc1ccccc1)NC(=S)NC(=O)c1cccc(C(F)(F)F)c1 [Example 4, N-(3-Trifluoromethylbenzoyl)-N'-(1-methyl-2-phenyl)-ethylthiourea]",49%
3,"Cc1cccc(C(=O)NC(=S)N[C@@H](C)Cc2ccccc2)c1 [Example 7, N-(3-Toluoyl)-N'-(1-methyl-2-phenyl)ethylthiourea]",53%
4,"COc1ccc(C(=O)NC(=S)N[C@@H](C)Cc2ccccc2)cc1 [Example 3, N-(4-Methoxybenzoyl)-N'-(1-methyl-2-phenyl)ethylthiourea]",52%
5,"C[C@@H](Cc1ccccc1)NC(=S)NC(=O)c1ccc(Cl)cc1 [Example 5, N-(4-Chlorobenzoyl)-N'-(1-methyl-2-phenyl)ethylthiourea]",41%
6,"C[C@@H](Cc1ccccc1)NC(=S)NC(=O)c1ccccc1 [Example 1, N-Benzoyl-N'-(1-methyl-2-phenyl)ethylthiourea]",90%
7,"O=C(NC(=S)NCCc1ccccc1)c1ccccc1 [Example 2, N-Benzoyl-N'-phenthylthiourea]",49%

# From patent US3931244A, “Thioureas” (John Wyeth & Brother Limited, priority 1973, dated 1976)
